Assay results taken from patent publication US20220117921A1, “PHARMACEUTICAL COMBINATIONS FOR THE TREATMENT OF PAIN” (IMUNEKS FARMA ILAC SANAYI VE TICARET A.S., priority 2018, published 2022).

System: female Albino Wistar rats
Assay: Hot plate test (heat induced pain model)
Assay type: in vivo, rat
Conditions: comparison between groups

With `CC(C(=O)O)c1ccc(-c2ccccc2)c(F)c1` (stereo not shown) [FBP, Flurbiprofen] the “analgesic effect in the hot plate test (in words)” value was “lowest analgesic effect compared to all the other groups except the placebo group”.
